Results taken from US20250099420A1, “SMALL MOLECULE MODULATORS OF GPR139 COMPLEX” (University of Florida Research Foundation, Incorporated, priority 2022, published 2025).
Like-named read-outs stand apart in the source and are kept apart here.

How the values were obtained:
GPR139 = molecular target: T1, GPR139 (Homo sapiens, UniProt Q6DWJ6); assay: GPR139 Agonist titration / agonist counterscreen assay (calcium detection, HEK-GPR139 cells); assay type: cell-based; design: expressed in transfected cells; host or cells: HEK Aequorin cells, Maxcyte transient transfection; conditions: GPR139 Agonist Activity; for Averaged Max % Response (±St. Dev.): activity relative to known control; for EC50: read-out: EC50
T1 sequence (Q6DWJ6 1-353): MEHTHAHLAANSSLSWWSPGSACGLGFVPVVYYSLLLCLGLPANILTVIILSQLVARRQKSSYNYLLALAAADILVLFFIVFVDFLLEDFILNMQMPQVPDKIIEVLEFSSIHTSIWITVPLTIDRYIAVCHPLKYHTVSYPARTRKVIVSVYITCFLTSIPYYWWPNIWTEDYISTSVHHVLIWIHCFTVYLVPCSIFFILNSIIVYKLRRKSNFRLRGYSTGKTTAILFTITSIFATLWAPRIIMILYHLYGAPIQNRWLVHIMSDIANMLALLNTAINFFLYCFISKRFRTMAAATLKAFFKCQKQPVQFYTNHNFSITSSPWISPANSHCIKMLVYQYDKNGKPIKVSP
Experimental: GPR activity was assessed using a calcium detection assay. […] Negative control samples were treated with DMSO. […] Intracellular calcium was measured using Calcium 5.

parental HEK cells = assay: HEK parental Agonist Counterscreen Assay (non-transfected cells); assay type: cell-based; conditions: for Averaged Max % Response (±St. Dev.): activity relative to known control
Excerpt: The high control for the agonist counterscreen was Forskolin not acetylcholine.

[1] = Homo sapiens, HEK293, HEK Agonist Activity section of Table 4 (parental HEK counterscreen)
[2] = values printed in E-notation without unit
[3] = Homo sapiens, HEK293, HEK Agonist Activity, parental non-transfected HEK cells
[4] = HEK Agonist Activity section of Table 4 (parental HEK counterscreen)

SMILES	Efficiency Ligand (GPR139)	Hill Slope (GPR139)	Lipophilic Efficiency (logD) (GPR139)	Lipophilic Efficiency (logP) (GPR139)	Averaged Max % Response (±St. Dev.) (GPR139)	Lipophilic Efficiency (logD) (parental HEK cells; HEK Agonist Activity section)	Lipophilic Efficiency (logP) (parental HEK cells; HEK Agonist Activity section)	Lipophilic Efficiency (logD) (GPR139; based on logD)	Lipophilic Efficiency (logP) (GPR139; based on logP)	Hill Slope (GPR139; fitted dose-response curve)	Efficiency Ligand (GPR139; ligand efficiency)	EC50 (GPR139; [2])	EC50 (GPR139; HEK-GPR139 cells)	Averaged Max % Response (±St. Dev.) (parental HEK cells; HEK Agonist Activity section)	EC50 (parental HEK cells; [1])	EC50 (parental HEK cells; [4])	other results
COc1ccc2cc(C3(C)CC(=O)N(CC(=O)N(CC(C)C)CC(C)C)C3=O)ccc2c1 (centres unmarked) [SR-01000054961]	0.26	0.85	2.43	2.43	79.59 ± 15.93%	1.27	1.27	–	–	–	–	–	–	6.24 ± 6.42%	> 14100 nM	–	–
CCc1c(C2C(C(=O)OCc3ccccc3)=C(C)CC3=C2C(=O)CCC3)ccc(OC)c1OC (centres unmarked) [SR-01000406098]	0.24	1.97	2.46	2.46	80.99 ± 4.70%	1.55	1.55	–	–	–	–	–	–	7.56 ± 6.15%	> 11500 nM	–	–
COc1ccc(C2=NN(CC(=O)NCCCN(C)c3ccccc3)C(=O)CC2)cc1 [SR-01000145949]	–	–	–	–	122.18 ± 22.07%	–	–	5.74	5.73	1.04	0.36	21.5 nM	–	–	–	–	Lipophilic Efficiency (logD) (parental HEK cells; HEK Agonist Activity): 2.92; Lipophilic Efficiency (logP) (parental HEK cells; HEK Agonist Activity): 2.92; Averaged Max % Response (±St. Dev.) (parental HEK cells; HEK Agonist Activity): 2.57 ± 15.21%; EC50 (parental HEK cells; [3]): > 14100 nM
O=C(Cn1nnc2c1-c1ccccc1OC2)Nc1cccc(Cl)c1 [SR-01000135042]	0.37	0.33	3.32	3.32	104.44 ± 8.42%	1.77	1.77	–	–	–	–	–	401 nM	16.89 ± 7.08%	> 14100 nM	–	–
O=C(CCOc1ccccc1)NCC1COc2ccccc2O1 (centres unmarked) [SR-01000479007]	0.40	1.21	4.24	4.24	101.79 ± 19.12%	2.56	2.56	–	–	–	–	–	277 nM	8.46 ± 4.77%	–	> 13200 nM	–
C=C(C)CN(CC)C(=O)CN1C(=O)NC(C)(c2ccc3ccccc3c2)C1=O (centres unmarked) [SR-01000048841]	–	–	–	–	125.61 ± 14.18%	–	–	5.59	5.59	0.27	0.41	6.7 nM	–	–	–	–	Lipophilic Efficiency (logD) (parental HEK cells; HEK Agonist Activity): 2.25; Lipophilic Efficiency (logP) (parental HEK cells; HEK Agonist Activity): 2.25; Averaged Max % Response (±St. Dev.) (parental HEK cells; HEK Agonist Activity): 15.49 ± 13.53%; EC50 (parental HEK cells; [3]): > 14800 nM
COc1ccc(NC(=O)NCC2CC(=O)N(c3ccccc3)C2)cc1 (centres unmarked) [SR-01000912290]	–	–	–	–	103.55 ± 8.13%	–	–	6.11	6.11	1.13	0.44	14.3 nM	–	–	–	–	Lipophilic Efficiency (logD) (parental HEK cells; HEK Agonist Activity): 3.12; Lipophilic Efficiency (logP) (parental HEK cells; HEK Agonist Activity): 3.12; Averaged Max % Response (±St. Dev.) (parental HEK cells; HEK Agonist Activity): 20.29 ± 5.75%; EC50 (parental HEK cells; [3]): > 14100 nM
COc1ccc(CCN2CC3=C(C2=O)C(c2ccc(F)c(F)c2)NC(=O)N3)cc1 (centres unmarked) [SR-01000335002]	0.31	0.68	4.62	4.62	86.79 ± 17.90%	3.09	3.09	–	–	–	–	–	422 nM	20.28 ± 3.20%	–	> 14100 nM	–
Cc1ccc(NC(=O)CSC2=C(C#N)C(c3ccc(F)cc3)CC(=O)N2)c(C)c1 (centres unmarked) [SR-01000484494]	0.28	0.89	1.82	1.82	114.96 ± 19.78%	0.89	0.89	–	–	–	–	–	1900 nM	14.09 ± 3.35%	–	> 16000 nM	–
CC(C)C(CC(=O)Cc1cccc2ccccc12)C(=O)Nc1cccc(C#N)c1 (centres unmarked) [SR-05000022531]	–	–	–	–	133.92 ± 16.41%	–	–	3.47	3.47	0.09	0.37	19.6 nM	–	–	–	–	Lipophilic Efficiency (logD) (parental HEK cells; HEK Agonist Activity): 0.61; Lipophilic Efficiency (logP) (parental HEK cells; HEK Agonist Activity): 0.61; Averaged Max % Response (±St. Dev.) (parental HEK cells; HEK Agonist Activity): 1.20 ± 11.04%; EC50 (parental HEK cells; [3]): > 14100 nM

More lines, main results first:

Efficiency Ligand (GPR139)	Hill Slope (GPR139)	Lipophilic Efficiency (logD) (GPR139)	Lipophilic Efficiency (logP) (GPR139)	Averaged Max % Response (±St. Dev.) (GPR139)	Lipophilic Efficiency (logD) (parental HEK cells; HEK Agonist Activity section)	Lipophilic Efficiency (logP) (parental HEK cells; HEK Agonist Activity section)	Lipophilic Efficiency (logD) (GPR139; based on logD)	Lipophilic Efficiency (logP) (GPR139; based on logP)	Hill Slope (GPR139; fitted dose-response curve)	Efficiency Ligand (GPR139; ligand efficiency)	EC50 (GPR139; [2])	EC50 (GPR139; HEK-GPR139 cells)	SMILES	Averaged Max % Response (±St. Dev.) (parental HEK cells; HEK Agonist Activity section)	EC50 (parental HEK cells; [1])	EC50 (parental HEK cells; [4])	other results
–	–	–	–	123.43 ± 12.00%	1.55	1.55	3.93	3.93	0.62	0.46	61.7 nM	–	O=C(CCC1CCCC1)NNC(=O)CSc1ccc(Cl)cc1 [SR-01000069439]	1.51 ± 2.29%	> 14900 nM	–	–
–	–	–	–	106.93 ± 8.46%	–	–	6.47	6.47	0.93	0.43	19.9 nM	–	COc1ccc(C2(C)NC(=O)N(CC(=O)NC3CCCC3)C2=O)cc1 (centres unmarked) [SR-01000918718]	–	–	–	Lipophilic Efficiency (logD) (parental HEK cells; HEK Agonist Activity): 3.62; Lipophilic Efficiency (logP) (parental HEK cells; HEK Agonist Activity): 3.62; Averaged Max % Response (±St. Dev.) (parental HEK cells; HEK Agonist Activity): 16.28 ± 3.44%; EC50 (parental HEK cells; HEK Agonist Activity, parental non-transfected HEK cells): > 14100 nM
–	–	–	–	118.50 ± 16.12%	2.04	2.04	4.23	4.23	0.84	0.43	98.9 nM	–	O=C(CCc1nc2ccccc2s1)NNC(=O)C1CCCCC1 [SR-01000068916]	19.72 ± 5.30%	> 15300 nM	–	–
0.37	1.15	3.01	3.01	81.65 ± 6.38%	1.85	1.85	–	–	–	–	–	955 nM	COc1ccc(SCC(=O)NNC(=S)Nc2ccccc2)cc1 [SR-01000526835]	7.64 ± 8.84%	> 13900 nM	–	–
–	–	–	–	85.12 ± 11.10%	1.35	1.34	3.36	3.36	0.80	0.40	138 nM	–	O=C(Cc1cccc2ccccc12)Nc1nnc(-c2cccs2)o1 [SR-01000012264]	3.88 ± 6.42%	–	> 14300 nM	–
–	–	–	–	95.59 ± 27.48%	2.02	2.02	4.03	4.03	1.03	0.38	141 nM	–	O=C(CN1CCN(Cc2ccccc2Cl)C1=O)NC1CCCCCC1 [SR-01000125460]	−2.02 ± 12.81%	–	> 14100 nM	–
0.37	0.77	4.40	4.40	113.08 ± 17.13%	2.71	2.71	–	–	–	–	–	289 nM	O=C(CN1CCCN(Cc2ccc(F)cc2Cl)C1=O)NC1CCCC1 [SR-01000146446]	−2.89 ± 4.65%	–	> 14100 nM	–
–	–	–	–	97.44 ± 1.25%	1.25	1.25	3.03	3.02	1.19	0.44	248 nM	–	Cc1ccccc1SCC(=O)NNC(=O)c1ccc(Br)s1 [SR-01000069352]	11.25 ± 2.29%	> 14600 nM	–	–
0.31	0.51	3.41	3.17	86.62 ± 3.28%	2.12	1.88	–	–	–	–	–	727 nM	Cc1onc(-c2ccccc2Cl)c1C(=O)N1CCC(Cn2ccnc2C)CC1 [SR-01000925002]	17.46 ± 3.54%	–	> 14100 nM	–
